Numbered stars: 1 amine (or outer) side, 2 acyl side, 3 side chain; on linkers, the order of the positions; unused ones are H or OH. Bridge positions count the residues as written; N and C are the ends. Square brackets hold non-standard residues; d marks the D form. Peptide text beside a SMILES is read from it. * marks the point of attachment. ξ: configuration not given here. Phe(4-COOH) = N[C@@H](Cc1ccc(C(=O)O)cc1)C(=O)O; d(γGlu) = O=C(O)[C@@H](CCC(=O)[*:2])N[*:1]; Bip = N[C@@H](Cc1ccc(-c2ccccc2)cc1)C(=O)O; Ala(2-furyl) = N[C@@H](Cc1ccco1)C(=O)O; Phe(3-Me) = Cc1cccc(C[C@H](N)C(=O)O)c1; Val(3-OH) = CC(C)(O)[C@H](N)C(=O)O; hArg = N=C(N)NCCCC[C@H](N)C(=O)O; Cha = N[C@@H](CC1CCCCC1)C(=O)O; Cit = NC(=O)NCCC[C@H](N)C(=O)O; Thr(3ξ) = CC(O)[C@H](N)C(=O)O; dDab = NCC[C@@H](N)C(=O)O; hSer = N[C@@H](CCO)C(=O)O; Carboxymethyl = O=C(O)C*; Orn = NCCC[C@H](N)C(=O)O; Aun = NCCCCCCCCCCC(=O)O; Dab = NCC[C@H](N)C(=O)O; AEEA = NCCOCCOCC(=O)O

T1 sequence (Q15116 25-288): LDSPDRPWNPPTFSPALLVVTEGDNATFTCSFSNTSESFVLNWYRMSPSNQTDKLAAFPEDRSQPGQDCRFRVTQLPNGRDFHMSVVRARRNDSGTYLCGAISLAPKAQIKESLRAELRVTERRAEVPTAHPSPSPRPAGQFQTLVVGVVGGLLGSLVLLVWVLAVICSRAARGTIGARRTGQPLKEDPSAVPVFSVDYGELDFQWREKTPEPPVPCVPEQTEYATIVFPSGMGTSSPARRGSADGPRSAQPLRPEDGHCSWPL

The assay has as its target T1, PD-1/PD-L1 interaction (PE-labeled human PD-L1-Ig binding to Jurkat cell line over-expressing human PD-1) (Homo sapiens, UniProt Q15116).
T1 construct: expressed in transfected cells; host or cells: Jurkat
Description: Jurkat-PD-1 Cell Binding High-Content Screening Assay (CBA). The conditions noted are these: Jurkat cell line over-expressing human PD-1; PE-labeled PD-L1-Ig 20 nM final; read-out: Jurkat hPD1-PDL1 IC50. The format is cell-based. An outline of the steps: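 Jurkat cells stably over-expressing human PD-1 were seeded in DMEM with 10% fetal calf serum and pre-incubated with compound for 2 h at 37° C. PE-labeled human PD-L1-Ig was then added at 20 nM final for 1 hour, after which cells were fixed with paraformaldehyde, Hoechst-stained and imaged by high-content microscopy.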
Consider `CC(=O)NCCCC[C@@H]1NC(=O)[C@H](C(C)C)NC(=O)[C@H](CC2CCCCC2)NC(=O)[C@H](CCN)NC(=O)[C@@H](CC(C)C)NC(=O)[C@H](CCCN)NC(=O)[C@H](Cc2ccc(O)cc2)NC(=O)[C@H](Cc2ccc(-c3ccccc3)cc2)NC(=O)[C@H](C(C)C)NC(=O)[C@H](Cc2c[nH]c3ccccc23)NC(=O)[C@H](CC(=O)O)NC(=O)[C@H](Cc2ccc(OCC(=O)O)cc2)NC(=O)[C@H](CCCNC(=N)N)NC(=O)CSC[C@@H](C(=O)NCCOCCOCC(=O)N[C@H](CCC(=O)NCCCCCCCCCCC(=O)O)C(=O)O)NC1=O` [Compound 3401] ({CH2CO}-RY(Carboxymethyl)DWV[Bip]Y[Orn][dL][Dab][Cha]VK(Ac)C[AEEA][d(γGlu)][Aun]-OH; thioether N-14), for which the concentration for half-maximal inhibition (IC50) was 0.0069 µM. As for `Cc1cccc(C[C@@H]2NC(=O)[C@H](CC(=O)O)NC(=O)[C@H](Cc3ccc(O)cc3)NC(=O)[C@H](CC(N)=O)NC(=O)CSC[C@@H](C(=O)NCCCCCCCCCCC(=O)O)NC(=O)[C@H](CCCNC(N)=O)NC(=O)[C@H](C(C)C)NC(=O)[C@H](CC3CCCCC3)NC(=O)[C@H](CCN)NC(=O)[C@@H](CC(C)C)NC(=O)[C@H](CCCN)NC(=O)[C@H](Cc3ccc(O)cc3)NC(=O)[C@H](Cc3ccc(-c4ccccc4)cc3)NC(=O)[C@H](C(C)C)NC2=O)c1` [Compound 3403] ({CH2CO}-NYD[Phe(3-Me)]V[Bip]Y[Orn][dL][Dab][Cha]V[Cit]C[Aun]-OH; thioether N-14), the half-maximal inhibitory concentration (IC50) amounted to 0.0107 µM. As for `CC(=O)NCCCC[C@@H]1NC(=O)[C@H](C(C)C)NC(=O)[C@H](CC2CCCCC2)NC(=O)[C@H](CCN)NC(=O)[C@@H](CC(C)C)NC(=O)[C@H](CCCN)NC(=O)[C@H](Cc2ccc(O)cc2)NC(=O)[C@H](Cc2ccc(-c3ccccc3)cc2)NC(=O)[C@H](C(C)C)NC(=O)[C@H](Cc2c[nH]c3ccccc23)NC(=O)[C@H](CC(=O)O)NC(=O)[C@H](Cc2ccc(C(=O)O)cc2)NC(=O)[C@H](Cc2ccc(OCC(=O)O)cc2)NC(=O)CSC[C@@H](C(=O)N[C@H](CCN)C(=O)NCCCCCCCCCCC(=O)O)NC1=O` [Compound 3404] ({CH2CO}-Y(Carboxymethyl)[Phe(4-COOH)]DWV[Bip]Y[Orn][dL][Dab][Cha]VK(Ac)C[dDab][Aun]-OH; thioether N-14), the half-inhibitory concentration (IC50) stood at 0.015 µM. For the compound `CC(C)C[C@H]1NC(=O)[C@H](CCCN)NC(=O)[C@H](Cc2ccc(O)cc2)NC(=O)[C@H](Cc2ccc(-c3ccccc3)cc2)NC(=O)[C@H](C(C)C)NC(=O)[C@H](Cc2c[nH]c3ccccc23)NC(=O)[C@H](CC(=O)O)NC(=O)[C@H](Cc2ccc(OCC(=O)O)cc2)NC(=O)[C@H](CCCNC(=N)N)NC(=O)CSC[C@@H](C(=O)N[C@@H](CCN)C(=O)NCCCCCCCCCCC(=O)O)NC(=O)[C@H](CCC(N)=O)NC(=O)[C@H](C(C)C)NC(=O)[C@H](CC2CCCCC2)NC(=O)[C@H](CCN)NC1=O` [Compound 3405] ({CH2CO}-RY(Carboxymethyl)DWV[Bip]Y[Orn][dL][Dab][Cha]VQC[Dab][Aun]-OH; thioether N-14), the concentration for half-maximal inhibition (IC50) amounted to 0.0082 µM. On to `CC(C)C[C@H]1NC(=O)[C@H](CCCN)NC(=O)[C@H](Cc2ccc(O)cc2)NC(=O)[C@H](Cc2ccc(-c3ccccc3)cc2)NC(=O)[C@H](C(C)C)NC(=O)[C@H](Cc2c[nH]c3ccccc23)NC(=O)[C@H](CC(=O)O)NC(=O)[C@H](Cc2ccc(OCC(=O)O)cc2)NC(=O)[C@H](CCCCNC(=N)N)NC(=O)CSC[C@@H](C(=O)N[C@@H](CCN)C(=O)NCCCCCCCCCCC(=O)O)NC(=O)[C@H](CCCNC(N)=O)NC(=O)[C@H](C(C)C)NC(=O)[C@H](CC2CCCCC2)NC(=O)[C@H](CCN)NC1=O` [Compound 3407] ({CH2CO}-[hArg]Y(Carboxymethyl)DWV[Bip]Y[Orn][dL][Dab][Cha]V[Cit]C[Dab][Aun]-OH; thioether N-14), for which the concentration for half-maximal inhibition (IC50) was 0.0212 µM. The figure for `CC(C)C[C@H]1NC(=O)[C@H](CCCN)NC(=O)[C@H](Cc2ccc(O)cc2)NC(=O)[C@H](Cc2ccc(-c3ccccc3)cc2)NC(=O)[C@H](C(C)C)NC(=O)[C@H](Cc2c[nH]c3ccccc23)NC(=O)[C@H](CC(=O)O)NC(=O)[C@H](Cc2ccc(OCC(=O)O)cc2)NC(=O)[C@H](CCCCNC(=N)N)NC(=O)CSC[C@@H](C(=O)N[C@@H](CCN)C(=O)NCCCCCCCCCCC(=O)O)NC(=O)[C@H](CCO)NC(=O)[C@H](C(C)C)NC(=O)[C@H](CC2CCCCC2)NC(=O)[C@H](CCN)NC1=O` [Compound 3408] ({CH2CO}-[hArg]Y(Carboxymethyl)DWV[Bip]Y[Orn][dL][Dab][Cha]V[hSer]C[Dab][Aun]-OH; thioether N-14) is 0.0209 µM. On to `CC(=O)NCCCC[C@@H]1NC(=O)[C@H](C(C)C)NC(=O)[C@H](CC2CCCCC2)NC(=O)[C@H](CCN)NC(=O)[C@@H](CC(C)C)NC(=O)[C@H](CCCN)NC(=O)[C@H](Cc2ccc(O)cc2)NC(=O)[C@H](Cc2ccc(-c3ccccc3)cc2)NC(=O)[C@H](C(C)C)NC(=O)[C@H](Cc2c[nH]c3ccccc23)NC(=O)[C@H](CC(=O)O)NC(=O)[C@H](Cc2ccc(OCC(=O)O)cc2)NC(=O)[C@H](CCCCNC(=N)N)NC(=O)CSC[C@@H](C(=O)N[C@@H](CCN)C(=O)NCCCCCCCCCCC(=O)O)NC1=O` [Compound 3409] ({CH2CO}-[hArg]Y(Carboxymethyl)DWV[Bip]Y[Orn][dL][Dab][Cha]VK(Ac)C[Dab][Aun]-OH; thioether N-14), for which the IC50 turned out to be 0.0156 µM. Next, `CC(C)C[C@H]1NC(=O)[C@H](CCCN)NC(=O)[C@H](Cc2ccc(O)cc2)NC(=O)[C@H](Cc2ccc(-c3ccccc3)cc2)NC(=O)[C@H](C(C)C)NC(=O)[C@H](Cc2c[nH]c3ccccc23)NC(=O)[C@H](CC(=O)O)NC(=O)[C@H](Cc2ccc(OCC(=O)O)cc2)NC(=O)[C@H](CCCCNC(=N)N)NC(=O)CSC[C@@H](C(=O)N[C@@H](CCN)C(=O)NCCCCCCCCCCC(=O)O)NC(=O)[C@H](C(C)O)NC(=O)[C@H](C(C)C)NC(=O)[C@H](CC2CCCCC2)NC(=O)[C@H](CCN)NC1=O` (stereo partly drawn) [Compound 3410] ({CH2CO}-[hArg]Y(Carboxymethyl)DWV[Bip]Y[Orn][dL][Dab][Cha]V[Thr(3ξ)]C[Dab][Aun]-OH; thioether N-14): 0.0202 µM. Consider `CC(C)C[C@H]1NC(=O)[C@H](CCCN)NC(=O)[C@H](Cc2ccc(O)cc2)NC(=O)[C@H](Cc2ccc(-c3ccccc3)cc2)NC(=O)[C@H](C(C)C)NC(=O)[C@H](Cc2c[nH]c3ccccc23)NC(=O)[C@H](CC(=O)O)NC(=O)[C@H](Cc2ccc(OCC(=O)O)cc2)NC(=O)[C@H](CCCNC(=N)N)NC(=O)CSC[C@@H](C(=O)N[C@@H](CCN)C(=O)NCCCCCCCCCCC(=O)O)NC(=O)[C@H](CCCNC(N)=O)NC(=O)[C@H](C(C)C)NC(=O)[C@H](CC2CCCCC2)NC(=O)[C@H](CCN)NC1=O` [Compound 3411] ({CH2CO}-RY(Carboxymethyl)DWV[Bip]Y[Orn][dL][Dab][Cha]V[Cit]C[Dab][Aun]-OH; thioether N-14), for which the IC50 is 0.011 µM. Consider `CC(C)C[C@H]1NC(=O)[C@H](CCCN)NC(=O)[C@H](Cc2ccc(O)cc2)NC(=O)[C@H](Cc2ccc(-c3ccccc3)cc2)NC(=O)[C@H](C(C)C)NC(=O)[C@H](Cc2c[nH]c3ccccc23)NC(=O)[C@H](CC(=O)O)NC(=O)[C@H](Cc2ccc(OCC(=O)O)cc2)NC(=O)[C@H](CCCNC(=N)N)NC(=O)CSC[C@@H](C(=O)N[C@@H](CCN)C(=O)NCCCCCCCCCCC(=O)O)NC(=O)[C@H](CCO)NC(=O)[C@H](C(C)C)NC(=O)[C@H](CC2CCCCC2)NC(=O)[C@H](CCN)NC1=O` [Compound 3412] ({CH2CO}-RY(Carboxymethyl)DWV[Bip]Y[Orn][dL][Dab][Cha]V[hSer]C[Dab][Aun]-OH; thioether N-14), for which the half-inhibitory concentration (IC50) amounted to 0.0164 µM.

As for `CC(C)C[C@H]1NC(=O)[C@H](CCCN)NC(=O)[C@H](Cc2ccc(O)cc2)NC(=O)[C@H](Cc2ccc(-c3ccccc3)cc2)NC(=O)[C@H](C(C)C)NC(=O)[C@H](Cc2c[nH]c3ccccc23)NC(=O)[C@H](CC(=O)O)NC(=O)[C@H](Cc2ccc(OCC(=O)O)cc2)NC(=O)[C@H](CCCNC(=N)N)NC(=O)CSC[C@@H](C(=O)N[C@@H](CCN)C(=O)NCCCCCCCCCCC(=O)O)NC(=O)[C@H](C(C)O)NC(=O)[C@H](C(C)C)NC(=O)[C@H](CC2CCCCC2)NC(=O)[C@H](CCN)NC1=O` (stereo partly drawn) [Compound 3413] ({CH2CO}-RY(Carboxymethyl)DWV[Bip]Y[Orn][dL][Dab][Cha]V[Thr(3ξ)]C[Dab][Aun]-OH; thioether N-14), the IC50 was determined as 0.0333 µM. In the case of `CC(C)C[C@H]1NC(=O)[C@H](CCCN)NC(=O)[C@H](Cc2ccc(O)cc2)NC(=O)[C@H](Cc2ccc(-c3ccccc3)cc2)NC(=O)[C@H](C(C)C)NC(=O)[C@H](Cc2c[nH]c3ccccc23)NC(=O)[C@H](CC(=O)O)NC(=O)[C@H](Cc2ccc(OCC(=O)O)cc2)NC(=O)[C@H](C(C)(C)O)NC(=O)CSC[C@@H](C(=O)N[C@@H](CCN)C(=O)NCCCCCCCCCCC(=O)O)NC(=O)[C@H](C(C)O)NC(=O)[C@H](C(C)C)NC(=O)[C@H](CC2CCCCC2)NC(=O)[C@H](CCN)NC1=O` (stereo partly drawn) [Compound 3414] ({CH2CO}-[Val(3-OH)]Y(Carboxymethyl)DWV[Bip]Y[Orn][dL][Dab][Cha]V[Thr(3ξ)]C[Dab][Aun]-OH; thioether N-14), the IC50 is 0.0737 µM. As for `CC(C)C[C@H]1NC(=O)[C@H](CCCN)NC(=O)[C@H](Cc2ccc(O)cc2)NC(=O)[C@H](Cc2ccc(-c3ccccc3)cc2)NC(=O)[C@H](C(C)C)NC(=O)[C@H](Cc2c[nH]c3ccccc23)NC(=O)[C@H](CC(=O)O)NC(=O)[C@H](Cc2ccc(OCC(=O)O)cc2)NC(=O)[C@H](CCCNC(=N)N)NC(=O)CSC[C@@H](C(=O)N[C@@H](CCN)C(=O)NCCCCCCCCCCC(=O)O)NC(=O)[C@H](Cc2ccco2)NC(=O)[C@H](C(C)C)NC(=O)[C@H](CC2CCCCC2)NC(=O)[C@H](CCN)NC1=O` [Compound 3415] ({CH2CO}-RY(Carboxymethyl)DWV[Bip]Y[Orn][dL][Dab][Cha]V[Ala(2-furyl)]C[Dab][Aun]-OH; thioether N-14), the concentration for half-maximal inhibition (IC50) worked out at 0.0736 µM.

One may read the IC50 as the concentration that inhibits the measured activity by half.
